What is called GI50 is the concentration that inhibits growth by half. The term IC50 denotes the concentration that gives 50% inhibition.

One experiment concerns MDA-MB-231 cells. The experiment in a line: Inhibition of proliferation of triple-negative breast cancer cells, CellTiter-Glo. Conditions: Homo sapiens, 120 h; MDA-MB-231, cultured for 5 days. Type of experiment: cell-based. As for the experimental part:
Specifically, the following test was performed in order to evaluate the inhibitory activity of the compound according to the present invention against the cell proliferation in triple-negative breast cancer cells (TNBCs).
Cells were seeded in 180 μL of a culture broth at a density of 2,000 to 3,000 cells/well in a white clear bottom 96-well plate (Corning) according to the growth ability of each cell, and then cultured for 24 hours under conditions of 5% CO2 and 37° C. Thereafter, the compound was prepared by diluting a 10 mM stock solution three-fold with 100% DMSO at a total of 12 concentrations so that a peak concentration of the compound was in a range of 10 mM to 0.05 μM, and the diluted compound was then diluted in each cell culture medium so that a final concentration of the compound was in a range of 100 μM to 0.5 nM. 20 μL of a diluted solution diluted with a medium was added to the cell solution in which cells were seeded in the 96-well plate on the previous day so that a final concentration of the diluted solution was in a range of 10 μM to 0.05 nM. Each of the cells was cultured for 5 days. To check cell viability, a mixture provided in a CellTiter-Glo® Luminescent Cell Viability Assay Kit (Promega) was added to each of the cultured cell media, and cultured for another 10 minutes under a condition of 37° C. Then, a degree of luminescence (fluorescence) was measured. A degree of inhibition of the cell growth according to the treatment concentration of each of the compounds was calculated based on the fluorescence of the solvent control cells which were not treated with the compound.

For the next experiment, the target named is T1, TTK (Homo sapiens, UniProt P33981).
T1 sequence (P33981 1-857): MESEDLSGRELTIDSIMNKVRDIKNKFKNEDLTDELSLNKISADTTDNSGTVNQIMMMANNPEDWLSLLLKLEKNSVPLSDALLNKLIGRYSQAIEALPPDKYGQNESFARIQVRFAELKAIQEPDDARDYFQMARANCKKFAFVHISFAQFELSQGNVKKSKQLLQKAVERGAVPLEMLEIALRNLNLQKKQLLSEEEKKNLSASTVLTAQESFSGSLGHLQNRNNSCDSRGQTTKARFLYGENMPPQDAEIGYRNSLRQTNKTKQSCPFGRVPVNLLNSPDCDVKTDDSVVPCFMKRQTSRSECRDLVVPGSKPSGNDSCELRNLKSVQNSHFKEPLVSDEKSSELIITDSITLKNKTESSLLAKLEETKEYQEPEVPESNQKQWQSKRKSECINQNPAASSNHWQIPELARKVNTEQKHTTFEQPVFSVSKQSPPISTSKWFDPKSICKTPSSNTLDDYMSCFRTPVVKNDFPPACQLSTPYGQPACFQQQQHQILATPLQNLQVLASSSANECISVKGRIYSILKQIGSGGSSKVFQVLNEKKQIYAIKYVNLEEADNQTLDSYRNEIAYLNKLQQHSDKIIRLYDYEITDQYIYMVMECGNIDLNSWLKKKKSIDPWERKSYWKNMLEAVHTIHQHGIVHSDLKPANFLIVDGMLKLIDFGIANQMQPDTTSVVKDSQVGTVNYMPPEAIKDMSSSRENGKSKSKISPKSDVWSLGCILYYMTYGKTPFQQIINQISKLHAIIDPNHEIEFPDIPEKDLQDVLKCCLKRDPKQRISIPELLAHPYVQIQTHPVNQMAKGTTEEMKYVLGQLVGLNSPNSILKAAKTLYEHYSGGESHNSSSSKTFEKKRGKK
As to the kind of experiment: TTK enzyme activity, ADP-Glo kinase assay. Type of experiment: biochemical. On the set-up: purchased SignalChem T20-10G. Conditions: purified human TTK, ATP 10 μM, 25° C., 2 hours. As for the experimental part: To evaluate an inhibitory activity of the compound according to the present invention against TTK (MPS1), an experiment was performed as follows.
Each of the Example compounds was reacted with a purified human TTK (SignalChem #T20-10G) enzyme to evaluate an ability to inhibit an enzyme using a method as described below. A composition of 40 mM Tris-HCl (pH 7.4), 20 mM MgCl2, 0.5 mg/mL BSA, and 50 μM DTT was used as a reaction buffer, and all reactions of test substances were performed in the reaction buffer. […] In the test, purified ATP (10 μM) and an enzyme substrate (0.2 μg) were reacted with a human TTK (25 ng) enzyme at 25° C. for 2 hours, and the enzyme activity was determined using an in vitro ADP-Glo™ kinase assay (Promega). […] The degree of inhibition of the enzyme activity according to the treatment concentration of each of the compounds was calculated based on the fluorescence of the enzyme activity of the solvent control which was not treated with the compound.
(ADP-Glo first removes unused ATP, then detects ADP through luciferase.)

Consider `COc1cc(N2CCOC2=O)ccc1Nc1nc(NC2CCCCC2)c2c(C#N)c[nH]c2n1` [Example 3, 4-(cyclohexylamino)-2-((2-methoxy-4-(2-oxooxazolidin-3-yl)phenyl)amino)-7H-pyrrolo[2,3-d] pyrimidine-5-carbonitrile], for which, in the experiment with MDA-MB-231 cells, the GI50 was 100 to 1000 nM. This compound also gave an IC50 against TTK of less than 50 nM.
On the same counts, the results for `CC[C@@H](C)Nc1nc(Nc2ccc(-c3ccnn3C)cc2OC)nc2[nH]cc(C#N)c12` [Example 10, (R)4-(sec-butylamino)-2-((2-methoxy-4-(1-methyl-1H-pyrazol-5-yl)phenyl)amino)-7H-pyrrolo[2,3-d] pyrimidine-5-carbonitrile 2,2,2-trifluoroacetate] are less than 100 nM and less than 50 nM.
On the same counts, the results for `CCC(C)Nc1nc(Nc2ccc(N3CCCC3=O)cc2OC)nc2[nH]cc(C#N)c12` (stereo in doubt) [Example 68, (S)-4-(sec-butylamino)-2-((2-methoxy-4-(2-oxopyrrolidin-1-yl)phenyl)amino)-7H-pyrrolo[2,3-d] pyrimidine-5-carbonitrile] are less than 100 nM and less than 50 nM.
Turning to `COc1cc(-c2ccnn2C)ccc1Nc1nc(NCC(C)(C)C)c2c(C#N)c[nH]c2n1` [Example 12, 2-((2-methoxy-4-(1-methyl-1H-pyrazol-5-yl)phenyl)amino)-4-(neopentylamino)-7H-pyrrolo[2,3-d] pyrimidine-5-carbonitrile], the GI50 with MDA-MB-231 cells was more than 1000 nM. The compound further yielded a half-maximal inhibitory concentration (IC50) at TTK of less than 50 nM.
On the same counts, the results for `CNc1nc(Nc2ccc(-c3ccnn3C)c3c2OCCO3)nc2[nH]cc(C#N)c12` [Example 75, 2-((8-(l-methyl-1H-pyrazol-5-yl)-2,3-dihydrobenzo[b][1,4]dioxin-5-yl)amino)-4-(methylamino)-1H-pyrrolo[2,3-d] pyrimidine-5-carbonitrile] are less than 100 nM and less than 50 nM.
On the same counts, the results for `Cn1nccc1-c1ccc(Nc2nc(NC3CCCCC3)c3c(C#N)c[nH]c3n2)c2c1OCCO2` [Example 39, 4-(cyclohexylamino)-2-((8-(1-methyl-1H-pyrazol-5-yl)-2,3-dihydrobenzo[b][1,4]dioxin-5-yl)amino)-7H-pyrrolo[2,3-d] pyrimidine-5-carbonitrile] are less than 100 nM and less than 50 nM.
The like results for `COc1cc(-c2nccs2)ccc1Nc1nc(NC2CCCC2)c2c(C#N)c[nH]c2n1` [Example 17, 4-(cyclopentylamino)-2-((2-methoxy-4-(thiazol-2-yl)phenyl)amino)-7H-pyrrolo[2,3-d] pyrimidine-5-carbonitrile] were, in that order, less than 100 nM and 200 to 1000 nM.
Compound `COc1cc(-c2cnn(C3CCOCC3)c2)ccc1Nc1nc(NC2CCCCC2)c2c(C#N)c[nH]c2n1` [Example 19, 4-(cyclohexylamino)-2-((2-methoxy-4-(1-(tetrahydro-2H-pyran-4-yl)-1H-pyrazol-4-yl)phenyl)amino)-7H-pyrrolo[2,3-d] pyrimidine-5-carbonitrile] yielded a GI50 in the experiment on MDA-MB-231 cells of less than 100 nM. Besides, the IC50 on TTK was 50 to 200 nM.
On the same counts, the results for `COc1cc(-c2ncnn2C)ccc1Nc1nc(NC2CCCCC2)c2c(C#N)c[nH]c2n1` [Example 26, 4-(cyclohexylamino)-2-((2-methoxy-4-(l-methyl-1H-1,2,4-triazol-5-yl)phenyl)amino)-7H-pyrrolo[2,3-d] pyrimidine-5-carbonitrile] are less than 100 nM and 50 to 200 nM.
The like results for `CC(C)Nc1nc(Nc2ccc(-c3ccnn3C)c3c2OCCO3)nc2[nH]cc(C#N)c12` [Example 76, 4-(isopropylamino)-2-((8-(1-methyl-1H-pyrazol-5-yl)-2,3-dihydrobenzo[b][1,4]dioxin-5-yl)amino)-7H-pyrrolo[2,3-d] pyrimidine-5-carbonitrile] were, in that order, less than 100 nM and less than 50 nM.
The like results for `CCCCNc1nc(Nc2ccc(N3CCCC3=O)cc2OC)nc2[nH]cc(C#N)c12` [Example 67, 4-(butylamino)-2-((2-methoxy-4-(2-oxopyrrolidin-1-yl)phenyl)amino)-7H-pyrrolo[2,3-d] pyrimidine-5-carbonitrile] were, in that order, less than 100 nM and less than 50 nM.
Take `COc1cc(-c2cnn(C3COC3)c2)ccc1Nc1nc(NC2CCCCC2)c2c(C#N)c[nH]c2n1` [Example 20, 4-(cyclohexylamino)-2-((2-methoxy-4-(1-(oxetan-3-yl)-1H-pyrazol-4-yl)phenyl)amino)-7H-pyrrolo[2,3-d] pyrimidine-5-carbonitrile]: the GI50 with MDA-MB-231 cells is less than 100 nM. On TTK, this compound gave an IC50 of less than 50 nM.
The like results for `COc1cc(-c2c(C)noc2C)ccc1Nc1nc(NC2CCCC2)c2c(C#N)c[nH]c2n1` [Example 44, 4-(cyclopentylamino)-2-((4-(3,5-dimethylisoxazol-4-yl)-2-methoxyphenyl)amino)-7H-pyrrolo[2,3-d] pyrimidine-5-carbonitrile] were, in that order, less than 100 nM and 50 to 200 nM.
On to `CC(C)COc1cc(N2CCCC2=O)ccc1Nc1nc(NC2CCCC2)c2c(C#N)c[nH]c2n1` [Example 28, 4-(cyclopentylamino)-2-((2-isobutoxy-4-(2-oxopyrrolidin-1-yl)phenyl)amino)-7H-pyrrolo[2,3-d] pyrimidine-5-carbonitrile], for which the GI50 in the experiment with MDA-MB-231 cells was more than 1000 nM. Moreover, the IC50 against TTK lay within 200 to 1000 nM.
With `N#Cc1c[nH]c2nc(Nc3ccc(N4CCCC4=O)c4c3OCCO4)nc(NC3CCCCC3)c12` [Example 79, 4-(cyclohexylamino)-2-((8-(2-oxopyrrolidin-1-yl)-2,3-dihydrobenzo[b][1,4]dioxin-5-yl)amino)-7H-pyrrolo[2,3-d] pyrimidine-5-carbonitrile], the 50% growth inhibitory concentration (GI50) with MDA-MB-231 cells is less than 100 nM. The IC50 at TTK is less than 50 nM.
With `COc1cc(-c2ccnn2C)c(C)cc1Nc1nc(NC2CCCC2)c2c(C#N)c[nH]c2n1` [Example 35, 4-(cyclopentylamino)-2-((2-methoxy-5-methyl-4-(1-methyl-1H-pyrazol-5-yl)phenyl)amino)-7H-pyrrolo[2,3-d] pyrimidine-5-carbonitrile], in the experiment on MDA-MB-231 cells, the GI50 fell in the range of 100 to 1000 nM. On TTK, this compound gave a half-inhibitory concentration (IC50) of 200 to 1000 nM.
The like results for `CCOc1cc(-c2nncn2C)ccc1Nc1nc(NCCS(C)(=O)=O)c2c(C#N)c[nH]c2n1` [Example 14, 2-((2-ethoxy-4-(4-methyl-4H-1,2,4-triazol-3-yl)phenyl)amino)-4-((2-(methylsulfonyl)ethyl)amino)-7H-pyrrolo[2,3-d] pyrimidine-5-carbonitrile] were, in that order, 100 to 1000 nM and less than 50 nM.
On the same counts, the results for `CCCCNc1nc(Nc2ccc(-c3nncn3C)cc2OCC)nc2[nH]cc(C#N)c12` [Example 11, 4-(butylamino)-2-((2-ethoxy-4-(4-methyl-4H-1,2,4-triazol-3-yl)phenyl)amino)-7H-pyrrolo[2,3-d] pyrimidine-5-carbonitrile] are less than 100 nM and less than 50 nM.
The like results for `Cn1nccc1-c1ccc(Nc2nc(NC3CCC3)c3c(C#N)c[nH]c3n2)c2c1OCCO2` [Example 82, 4-(cyclobutylamino)-2-((8-(1-methyl-1H-pyrazol-5-yl)-2,3-dihydrobenzo[b][1,4]dioxin-5-yl)amino)-7H-pyrrolo[2,3-d] pyrimidine-5-carbonitrile] were, in that order, less than 100 nM and less than 50 nM.
